# According to patent US9302999B2, “Substituted triazoles as herbicides” (E. I. DU PONT DE NEMOURS AND COMPANY, priority 2012, dated 2016):
# Tests used:
# Type in all cases: in vivo
# [1] = system: field violet (Viola arvensis); experiment: Test D pre-/postemergence: field violet
# Procedure, shortened: (§1)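 Applied as a non-phytotoxic solvent formulation with surfactant, compounds were tested preemergence in silt loam and postemergence on seedlings 2 to 18 cm high in peat-vermiculite medium. Evaluation was visual, 0 meaning no effect and 100 complete control, at 14 to 21 days.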
# soybean (Glycine max) = experiment: Test F pre-/postemergence: soybean
# Procedure, shortened: (§2)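 0–100 visual control scores, taken 14–21 d after application in the greenhouse. Preemergence treatment was made to silt loam soil at sowing. Postemergence sprays hit 1- to 4-leaf plants (2–18 cm) in peat/vermiculite mix. Surfactant-containing non-phytotoxic solvent served as the vehicle.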
# [2] = system: wheat, spring (spring wheat, Triticum aestivum); experiment: Test D pre-/postemergence: wheat, spring
# Procedure, shortened: as §1
# [3] = system: johnsongrass (Sorghum halepense); experiment: Test F pre-/postemergence: johnsongrass; conditions: Preemergence
# Procedure, shortened: as §2
# [4] = system: barley, winter (winter barley, Hordeum vulgare); experiment: Test D pre-/postemergence: barley, winter
# Procedure, shortened: as §1
# [5] = system: nutsedge, yellow (yellow nutsedge, Cyperus esculentus); experiment: Test F pre-/postemergence: nutsedge, yellow; conditions: Preemergence
# Procedure, shortened: as §2
# [6] = system: ryegrass, Italian (Italian ryegrass, Lolium multiflorum); experiment: Test F pre-/postemergence: ryegrass, Italian
# Procedure, shortened: as §2
# [7] = system: oilseed rape (Brassica napus); experiment: Test D pre-/postemergence: oilseed rape
# Procedure, shortened: as §1
# [8] = system: waterhemp (common waterhemp, Amaranthus rudis); experiment: Test F pre-/postemergence: waterhemp
# Procedure, shortened: as §2
# [9] = system: chamomile (scentless chamomile, Matricaria inodora); experiment: Test D pre-/postemergence: chamomile
# Procedure, shortened: as §1
# [10] = Postemergence, 31 g ai/ha, scale 0 to 100 (0 no effect, 100 complete control)
# [11] = Postemergence, 62 g ai/ha, scale 0 to 100 (0 no effect, 100 complete control)
# [12] = Postemergence, 125 g ai/ha, scale 0 to 100, 0 no effect, 100 complete control
# [13] = Postemergence, 16 g ai/ha, scale 0 to 100
# [14] = Preemergence, 16 g ai/ha, scale 0 to 100, 0 no effect, 100 complete control
# [15] = Preemergence, 31 g ai/ha, scale 0 to 100, 0 no effect, 100 complete control
# [16] = Preemergence, 62 g ai/ha, scale 0 to 100
# [17] = Preemergence, 125 g ai/ha, scale 0 to 100
# [18] = Preemergence, 250 g ai/ha, scale 0 to 100
# [19] = 16 g ai/ha, scale 0 to 100, 0 no effect, 100 complete control
# [20] = 31 g ai/ha, scale 0 to 100, 0 no effect, 100 complete control
# [21] = Postemergence, 250 g ai/ha, scale 0 to 100
# [22] = Postemergence, 31 g ai/ha, scale 0 to 100
# [23] = Postemergence, 125 g ai/ha, scale 0 to 100
structure (smiles),measurement,setting,value
Cc1nn(-c2ccc(C(F)(F)F)c(F)c2)nc1Oc1ccnc(C(F)(F)F)c1 [Compound 148],Plant response rating: Field Violet,[1]; [10],95
same,Plant response rating: Field Violet,[1]; [11],95
same,Plant response rating: Field Violet,[1]; [12],95
same,"Plant response rating, Field Violet",[1]; [13],90
same,"Plant response rating, Field Violet",[1]; [14],90
same,"Plant response rating, Field Violet",[1]; [15],100
same,"Plant response rating, Field Violet",[1]; [16],95
same,"Plant response rating, Field Violet",[1]; [17],100
same,"Plant response rating, Soybean",soybean (Glycine max); [14],0
same,"Plant response rating, Soybean",soybean (Glycine max); [15],0
same,"Plant response rating, Soybean",soybean (Glycine max); [17],20
same,"Plant response rating, Soybean",soybean (Glycine max); [18],40
same,"Plant response rating: Wheat, Spring",[2]; [10],10
same,"Plant response rating: Wheat, Spring",[2]; [11],20
same,"Plant response rating: Wheat, Spring",[2]; [12],25
same,"Plant response rating, Wheat, Spring",[2]; [13],10
same,"Plant response rating, Wheat, Spring",[2]; [14],0
same,"Plant response rating, Wheat, Spring",[2]; [15],0
same,"Plant response rating, Wheat, Spring",[2]; [16],0
same,"Plant response rating, Wheat, Spring",[2]; [17],5
same,"Plant response rating, Johnsongrass",[3]; [19],0
same,"Plant response rating, Johnsongrass",[3]; [20],20
same,"Plant response rating, Johnsongrass","[3]; 62 g ai/ha, scale 0 to 100",20
same,"Plant response rating, Johnsongrass","[3]; 125 g ai/ha, scale 0 to 100",30
same,"Plant response rating, Johnsongrass","[3]; 250 g ai/ha, scale 0 to 100",40
same,"Plant response rating: Barley, Winter",[4]; [10],20
same,"Plant response rating: Barley, Winter",[4]; [11],25
same,"Plant response rating: Barley, Winter",[4]; [12],30
same,"Plant response rating, Barley, Winter",[4]; [13],10
same,"Plant response rating, Barley, Winter",[4]; [14],0
same,"Plant response rating, Barley, Winter",[4]; [15],0
same,"Plant response rating, Barley, Winter",[4]; [16],5
same,"Plant response rating, Barley, Winter",[4]; [17],5
same,"Plant response rating, Nutsedge, Yellow",[5]; [19],0
same,"Plant response rating, Nutsedge, Yellow",[5]; [20],0
same,"Plant response rating, Nutsedge, Yellow","[5]; 125 g ai/ha, scale 0 to 100",20
same,"Plant response rating, Nutsedge, Yellow","[5]; 250 g ai/ha, scale 0 to 100",35
same,"Plant response rating, Ryegrass, Italian",[6]; [14],0
same,"Plant response rating, Ryegrass, Italian",[6]; [15],0
same,"Plant response rating, Ryegrass, Italian",[6]; [17],95
same,"Plant response rating, Ryegrass, Italian",[6]; [18],100
same,Plant response rating: Oilseed Rape,[7]; [10],35
same,Plant response rating: Oilseed Rape,[7]; [11],80
same,Plant response rating: Oilseed Rape,[7]; [12],100
same,"Plant response rating, Oilseed Rape",[7]; [13],30
same,"Plant response rating, Oilseed Rape",[7]; [14],5
same,"Plant response rating, Oilseed Rape",[7]; [15],0
same,"Plant response rating, Oilseed Rape",[7]; [16],10
same,"Plant response rating, Oilseed Rape",[7]; [17],20
same,"Plant response rating, Waterhemp",[8]; [14],30
same,"Plant response rating, Waterhemp",[8]; [15],90
same,"Plant response rating, Waterhemp",[8]; [17],100
same,"Plant response rating, Waterhemp",[8]; [18],100
same,Plant response rating: Chamomile,[9]; [10],70
same,Plant response rating: Chamomile,[9]; [11],75
same,Plant response rating: Chamomile,[9]; [12],95
same,"Plant response rating, Chamomile",[9]; [13],60
same,"Plant response rating, Chamomile",[9]; [14],10
same,"Plant response rating, Chamomile",[9]; [15],20
same,"Plant response rating, Chamomile",[9]; [16],70
same,"Plant response rating, Chamomile",[9]; [17],100
CCc1nn(-c2ccc(C(F)(F)F)cc2)nc1Cc1ccnc(C(F)(F)F)c1 [Compound 155],Plant response rating: Field Violet,[1]; [10],100
same,Plant response rating: Field Violet,[1]; [11],100
same,Plant response rating: Field Violet,[1]; [12],95
same,"Plant response rating, Field Violet",[1]; [13],95
same,"Plant response rating, Field Violet",[1]; [14],90
same,"Plant response rating, Field Violet",[1]; [15],95
same,"Plant response rating, Field Violet",[1]; [16],95
same,"Plant response rating, Field Violet",[1]; [17],100
same,"Plant response rating, Soybean",soybean (Glycine max); [17],30
same,"Plant response rating, Soybean",soybean (Glycine max); [18],30
same,"Plant response rating: Wheat, Spring",[2]; [10],20
same,"Plant response rating: Wheat, Spring",[2]; [11],25
same,"Plant response rating: Wheat, Spring",[2]; [12],50
same,"Plant response rating, Wheat, Spring",[2]; [13],15
same,"Plant response rating, Wheat, Spring",[2]; [14],0
same,"Plant response rating, Wheat, Spring",[2]; [15],0
same,"Plant response rating, Wheat, Spring",[2]; [16],0
same,"Plant response rating, Wheat, Spring",[2]; [17],5
same,"Plant response rating, Johnsongrass","[3]; 62 g ai/ha, scale 0 to 100",90
same,"Plant response rating, Johnsongrass","[3]; 125 g ai/ha, scale 0 to 100",90
same,"Plant response rating, Johnsongrass","[3]; 250 g ai/ha, scale 0 to 100",100
same,"Plant response rating: Barley, Winter",[4]; [10],20
same,"Plant response rating: Barley, Winter",[4]; [11],25
same,"Plant response rating: Barley, Winter",[4]; [12],35
same,"Plant response rating, Barley, Winter",[4]; [13],15
same,"Plant response rating, Barley, Winter",[4]; [14],5
same,"Plant response rating, Barley, Winter",[4]; [15],0
same,"Plant response rating, Barley, Winter",[4]; [16],5
same,"Plant response rating, Barley, Winter",[4]; [17],10
same,"Plant response rating, Nutsedge, Yellow","[5]; 125 g ai/ha, scale 0 to 100",25
same,"Plant response rating, Nutsedge, Yellow","[5]; 250 g ai/ha, scale 0 to 100",30
same,"Plant response rating, Ryegrass, Italian",[6]; [17],85
same,"Plant response rating, Ryegrass, Italian",[6]; [18],95
same,Plant response rating: Oilseed Rape,[7]; [10],100
same,Plant response rating: Oilseed Rape,[7]; [11],100
same,Plant response rating: Oilseed Rape,[7]; [12],100
same,"Plant response rating, Oilseed Rape",[7]; [13],85
same,"Plant response rating, Oilseed Rape",[7]; [14],0
same,"Plant response rating, Oilseed Rape",[7]; [15],5
same,"Plant response rating, Oilseed Rape",[7]; [16],100
same,"Plant response rating, Oilseed Rape",[7]; [17],100
same,"Plant response rating, Waterhemp",[8]; [17],100
same,"Plant response rating, Waterhemp",[8]; [18],100
same,Plant response rating: Chamomile,[9]; [10],70
same,Plant response rating: Chamomile,[9]; [11],80
same,Plant response rating: Chamomile,[9]; [12],85
same,"Plant response rating, Chamomile",[9]; [13],60
same,"Plant response rating, Chamomile",[9]; [14],5
same,"Plant response rating, Chamomile",[9]; [15],80
same,"Plant response rating, Chamomile",[9]; [16],95
same,"Plant response rating, Chamomile",[9]; [17],100
CCCc1nn(-c2ccc(F)c(F)c2)nc1Oc1ccnc(C(F)(F)F)c1 [Compound 172],"Plant response rating, Soybean",soybean (Glycine max); [21],90
same,"Plant response rating, Soybean",soybean (Glycine max); [22],50
same,"Plant response rating, Soybean",soybean (Glycine max); [23],75
same,"Plant response rating, Soybean",soybean (Glycine max); [15],0
same,"Plant response rating, Soybean",soybean (Glycine max); [17],20
same,"Plant response rating, Soybean",soybean (Glycine max); [18],20
same,"Plant response rating, Johnsongrass",[3]; [20],50
same,"Plant response rating, Johnsongrass","[3]; 125 g ai/ha, scale 0 to 100",75
same,"Plant response rating, Johnsongrass","[3]; 250 g ai/ha, scale 0 to 100",100
same,"Plant response rating, Nutsedge, Yellow",[5]; [20],25
same,"Plant response rating, Nutsedge, Yellow","[5]; 125 g ai/ha, scale 0 to 100",25
same,"Plant response rating, Nutsedge, Yellow","[5]; 250 g ai/ha, scale 0 to 100",25
same,"Plant response rating, Ryegrass, Italian",[6]; [21],50
same,"Plant response rating, Ryegrass, Italian",[6]; [22],20
same,"Plant response rating, Ryegrass, Italian",[6]; [23],40
same,"Plant response rating, Ryegrass, Italian",[6]; [15],35
same,"Plant response rating, Ryegrass, Italian",[6]; [17],100
same,"Plant response rating, Ryegrass, Italian",[6]; [18],100
same,"Plant response rating, Waterhemp",[8]; [21],100
same,"Plant response rating, Waterhemp",[8]; [22],95
same,"Plant response rating, Waterhemp",[8]; [23],100
same,"Plant response rating, Waterhemp",[8]; [15],98
same,"Plant response rating, Waterhemp",[8]; [17],100
same,"Plant response rating, Waterhemp",[8]; [18],100
